Results taken from patent publication US10774064B2 (Cadent Therapeutics, Inc., priority 2016, dated 2020).

What follows are compounds tested against T1, small-conductance Ca2+-activated K+ channels (SK channels, subtype 2) (Homo sapiens, UniProt Q9H2S1) (assay: whole-cell patch-clamp of ionic current through SK2 channels in HEK293 cells (SC100)). Conditions: concentration that increases the basal current by 100%; HEK293 cells expressing SK2 channels.
T1 construct: expressed in transfected cells; host or cells: HEK293
Type: cell-based
Outline: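 Whole-cell patch-clamp recording of current in HEK293 cells expressing SK2 channels. SC100 is the compound concentration that increases basal current by 100%.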

Row | SC100 | Structure (SMILES)
1 | + (+ means >1 uM) | CC(=O)NCc1cc(NC2CCC(F)(F)CC2)nc(-n2ccc(CF)n2)n1 [Compound 327, N-((6-((4,4-difluorocyclohexyl)amino)-2-(3-(fluoromethyl)-1H-pyrazol-1-yl)pyrimidin-4-yl)methyl)acetamide]
2 | ++ (++ means 200 nM-1000 nM) | Cc1cc(NC2CCC(F)(F)CC2)nc(-n2ccc(CC#N)n2)n1 [Compound 208, 2-(1-(4-((4,4-difluorocyclohexyl)amino)-6-methylpyrimidin-2-yl)-1H-pyrazol-3-yl)acetonitrile]
3 | + (+ means >1 uM) | Cc1cc(C)n(-c2nc(NCc3ncco3)cc(NC3CCC(F)(F)CC3)n2)n1 [Compound 145, N4-(4,4-difluorocyclohexyl)-2-(3,5-dimethyl-1H-pyrazol-1-yl)-N6-(oxazol-2-ylmethyl)pyrimidine-4,6-diamine]
4 | + (+ means >1 uM) | Cc1cc(C)n(-c2cc(NCc3nnc(C)o3)cc(NC3CCC(F)(F)CC3)n2)n1 [Compound 252, N2-(4,4-difluorocyclohexyl)-6-(3,5-dimethyl-1H-pyrazol-1-yl)-N4-((5-methyl-1,3,4-oxadiazol-2-yl)methyl)pyridine-2,4-diamine]
5 | + (+ means >1 uM) | Cc1cc(C)n(Cc2cc(NC3CCC(F)(F)CC3)nc(-n3ccc(CF)n3)n2)n1 [Compound 300, N-(4,4-difluorocyclohexyl)-6-((3,5-dimethyl-1H-pyrazol-1-yl)methyl)-2-(3-(fluoromethyl)-1H-pyrazol-1-yl)pyrimidin-4-amine]
6 | + (+ means >1 uM) | Cc1cc(NC2CCC(F)(F)CC2)nc(-n2nc(C3CC3)cc2C)n1 [Compound 221, 2-(3-cyclopropyl-5-methyl-1H-pyrazol-1-yl)-N-(4,4-difluorocyclohexyl)-6-methylpyrimidin-4-amine]
7 | ++ (++ means 200 nM-1000 nM) | CCC(=O)N1CC(Oc2cc(NC3CCC(F)(F)CC3)nc(-n3ccc(CF)n3)n2)C1 [Compound 288, 1-(3-((6-((4,4-difluorocyclohexyl)amino)-2-(3-(fluoromethyl)-1H-pyrazol-1-yl)pyrimidin-4-yl)oxy)azetidin-1-yl)propan-1-one]
8 | ++ (++ means 200 nM-1000 nM) | Cc1ccn(-c2nc(NCC(C)(C)C)cc(NC3CCC(F)(F)CC3)n2)n1 [Compound 146, N4-(4,4-difluorocyclohexyl)-2-(3-methyl-1H-pyrazol-1-yl)-N6-neopentylpyrimidine-4,6-diamine]
9 | ++ (++ means 200 nM-1000 nM) | Cc1cc(C)n(-c2cc(C(N)=O)cc(NC3CCC(F)(F)CC3)n2)n1 [Compound 175, 2-((4,4-difluorocyclohexyl)amino)-6-(3,5-dimethyl-1H-pyrazol-1-yl)isonicotinamide]
10 | + (+ means >1 uM) | Cc1cc(C)n(-c2nc(NC3CCC(F)(F)CC3)cc(OCc3ncn(C)n3)n2)n1 [Compound 272]
11 | + (+ means >1 uM) | CCN(c1nc(C)cc(-n2nc(C)cc2C)n1)C1CCC(F)(F)CC1 [Compound 160, N-(4,4-difluorocyclohexyl)-4-(3,5-dimethyl-1H-pyrazol-1-yl)-N-ethyl-6-methylpyrimidin-2-amine]
12 | ++ (++ means 200 nM-1000 nM) | O=C(N1CC(Oc2cc(NC3CCC(F)(F)CC3)nc(-c3nc(C(F)(F)F)cs3)n2)C1)C(F)(F)F [Compound 323, 1-(3-((6-((4,4-difluorocyclohexyl)amino)-2-(4-(trifluoromethyl)thiazol-2-yl)pyrimidin-4-yl)oxy)azetidin-1-yl)-2,2,2-trifluoroethan-1-one]
13 | ++ (++ means 200 nM-1000 nM) | Cc1ccn(-c2nc(NCC3(N(C)C)CCC3)cc(NC3CCC(F)(F)CC3)n2)n1 [Compound 157, N4-(4,4-difluorocyclohexyl)-N6-((1-(dimethylamino)cyclobutyl)methyl)-2-(3-methyl-1H-pyrazol-1-yl)pyrimidine-4,6-diamine]

Same assay, conditions: whole-cell patch-clamp, HEK293 cells expressing SK2 channels; concentration that increases the basal current by 100%

Row | Structure (SMILES) | SC100 (μM)
14 | Cc1cc(C)n(-c2nc(NC3CCC(F)(F)CC3)cc(N3CCOCC3COC(C)C)n2)n1 (stereo not drawn) [IN10965-089-P1] | ++ (++ means 200 nM-1000 nM)
15 | Cc1cc(C)n(-c2nc(NC3CCC(F)(F)CC3)cc(C(C)N(C)C)n2)n1 (stereo not drawn) [IN10964-046-P1, N-(4,4-difluorocyclohexyl)-2-(3,5-dimethyl-1H-pyrazol-1-yl)-6-(1-(dimethylamino)ethyl)pyrimidin-4-amine] | + (+ means >1 uM)
16 | Cc1ccn(-c2nc(NC3CCC(F)(F)CC3)cc(C(O)c3ccccc3)n2)n1 (stereo not drawn) [IN10987-039-P1] | + (+ means >1 uM)
17 | COc1nc(-c2nc(C)cs2)nc(NC2CCC(F)(F)CC2)c1OC [IN11125-010-P1] | ++ (++ means 200 nM-1000 nM)
18 | COc1c(NC2CCC(F)(F)CC2)nc(-c2nc(C)cs2)nc1OCc1cnco1 [IN11111-021-P1] | ++ (++ means 200 nM-1000 nM)
19 | Cc1csc(-c2cnc(NC3CCC(F)(F)CC3)c(C)n2)n1 [IN11079-047-P1, N-(4,4-difluorocyclohexyl)-3-methyl-5-(4-methylthiazol-2-yl) pyrazin-2-amine] | + (+ means >1 uM)
20 | Cc1ccn(-c2nc(NC3CCC(F)(F)CC3)cc(OCc3ncco3)n2)n1 [IN11053-022-P1] | + (+ means >1 uM)
21 | FCc1ccn(-c2nc(NC3CC=CCC3)cc(N3CCOCC3)n2)n1 (stereo not drawn) | + (+ means >1 uM)
22 | Cc1csc(-c2nc(NC3CCC(F)(F)CC3)cc(NC3COC3)n2)n1 [IN10882-040-P1] | + (+ means >1 uM)
23 | COC(=O)NC(C)c1cc(NC2CCC(F)(F)CC2)nc(-n2ccc(C)n2)c1 (stereo not drawn) [IN11054-005-P1, methyl (1-(2-((4,4-difluorocyclohexyl)amino)-6-(3-methyl-1H-pyrazol-1-yl)pyridin-4-yl)ethyl) carbamate] | + (+ means >1 uM)
24 | Cc1csc(-c2nc(NC3CCC(F)(F)CC3)cc(N3CCC(F)CC3)n2)n1 [IN10864-33.P1] | ++ (++ means 200 nM-1000 nM)
25 | Cc1csc(-c2nc(NC3CCC(F)(F)CC3)cc([S+](C)[O-])n2)n1 (stereo not drawn) [IN11054-046-P2] | ++ (++ means 200 nM-1000 nM)
26 | Cc1csc(-c2nc(NC3CCC(F)(F)CC3)cc(N3CCN(C)C(CO)C3)n2)n1 (stereo not drawn) [IN10864-066-P1] | ++ (++ means 200 nM-1000 nM)
27 | COc1cc(NCCCC(C)(F)F)nc(-c2nc(C)cs2)n1 [IN11107-023-P1] | + (+ means >1 uM)
28 | CC(=O)c1cc(N2CCOCC2)cc(NC2CCC(F)(F)CC2)n1 [IN11104-090-P1, 1-(6-((4,4-difluorocyclohexyl)amino)-4-morpholinopyridin-2-yl) ethan-1-one] | + (+ means >1 uM)
29 | Cc1csc(-c2nc(CN(C)C=O)cc(NC3CCC(F)(F)CC3)n2)n1 [IN11059-095-P1] | ++ (++ means 200 nM-1000 nM)
30 | Cc1ccn(-c2nc(NC3CCC(F)(F)CC3)cc(N3CCCOCC3)n2)n1 [IN11111-097-P1] | ++ (++ means 200 nM-1000 nM)

The remaining lines, values ahead:

Row | SC100 (μM) | Structure (SMILES)
31 | + (+ means >1 uM) | Cc1ccnn1-c1nc(NC2CCC(F)(F)CC2)cc(N2CCOCC2)n1 [IN11237-056-P1]
32 | + (+ means >1 uM) | COCCNc1cc(-n2ccc(C)n2)nc(NC2CCC(F)(F)CC2)n1 [NSSy6700]
33 | ++ (++ means 200 nM-1000 nM) | COCc1cc(NC2CCC(F)(F)CC2)nc(-c2nc(C)cs2)c1 [NSSy5933, N-(4,4-difluorocyclohexyl)-4-(methoxymethyl)-6-(4-methylthiazol-2-yl)pyridin-2-amine]
34 | + (+ means >1 uM) | Cc1ccn(-c2nc(NC3CCC(C#N)CC3)cc(N3CCOCC3)n2)n1 (stereo not drawn) [NSSy6526]
35 | ++ (++ means 200 nM-1000 nM) | Cc1csc(-c2cc(N3CC(N(C)C)C3)cc(NC3CCC(F)(F)CC3)n2)n1 [NSSy5677]
36 | ++ (++ means 200 nM-1000 nM) | COC(=O)N(C)Cc1cc(NC2CCC(F)(F)CC2)nc(-c2nc(C)cs2)c1 [IN11251-043-P1]
37 | + (+ means >1 uM) | Cc1ccn(-c2nc(NC3CCC(N)CC3)cc(N3CCOCC3)n2)n1 (stereo not drawn) [NSSy6550]
38 | + (+ means >1 uM) | Oc1ccn(-c2nc(NC3CCC(F)(F)CC3)cc(N3CCOCC3)n2)n1 [NSSy7087, 1-(4-((4,4-difluorocyclohexyl)amino)-6-morpholinopyrimidin-2-yl)-1H-pyrazol-3-ol]
39 | + (+ means >1 uM) | COc1nc(-c2nc(C)cs2)nc(NC2CCC(F)(F)CC2)c1OCc1cnco1 [IN11125-091-P1, N-(4,4-difluorocyclohexyl)-6-methoxy-2-(4-methylthiazol-2-yl)-5-(oxazol-5-ylmethoxy)pyrimidin-4-amine]
40 | ++ (++ means 200 nM-1000 nM) | CC(=O)N1CCN(c2cc(-n3ccc(CF)n3)nc(NC3CCC(F)(F)CC3)n2)CC1 [NSSy6917]
41 | ++ (++ means 200 nM-1000 nM) | Cc1csc(-c2nc(NC3CCC(F)(F)CC3)cc(OC3CCS(=O)(=O)CC3)n2)n1 [NSSy6253]
42 | + (+ means >1 uM) | COC(=O)N1CC(Oc2cc(NC3CCC(F)CC3)nc(-n3ccc(C)n3)n2)C1 (stereo not drawn) [NSSy5741]
43 | + (+ means >1 uM) | COC(=O)N1CC(Oc2cc(N3CC4(CCCCC4)C3)nc(-c3nc(C)cs3)n2)C1 [NSSy6126]
44 | ++ (++ means 200 nM-1000 nM) | Cc1nsc(-c2nc(NC3CCC(F)(F)CC3)cc(N3CCN4C(=O)OC[C@@H]4C3)n2)n1 [NSSy6251]
45 | ++ (++ means 200 nM-1000 nM) | Cc1ccn(-c2cc(OC3CCS(=O)(=O)CC3)nc(NC3CCC(F)(F)CC3)n2)n1 [NSSy6913]
46 | + (+ means >1 uM) | COc1cc(C)n(-c2nc(NC3CCC(F)(F)CC3)cc(N3CCOCC3)n2)n1 [IN11217-088-P1]
47 | +++ (+++ means <200 nM) | Cc1csc(-c2cc(COC(N)=O)cc(NC3CCC(F)(F)CC3)n2)n1 [IN11133-061-P1, (2-((4,4-difluorocyclohexyl)amino)-6-(4-methylthiazol-2-yl)pyridin-4-yl)methyl carbamate]
48 | + (+ means >1 uM) | NC(=O)OCc1cc(N(C(N)=O)C2CCC(F)(F)CC2)nc(-n2ccc(C3CC3)n2)n1 [IN11137-079-P1, (2-(3-cyclopropyl-1H-pyrazol-1-yl)-6-(1-(4,4-difluorocyclohexyl)ureido)pyrimidin-4-yl)methyl carbamate]
